Experimental data from patent publication US20210355104A1, “ADENOSINE RECEPTOR BINDING COMPOUNDS” (Nikang Therapeuticsm Inc., priority 2018, published 2021).
Values joined by “and” are separate entries in the source; they are usually repeats but may differ in a detail not shown here. Equal entries are not always repeated.

Target: Adenosine A2A receptor (Homo sapiens, UniProt P29274)
Experiment: cAMP assay in 293A cells stably expressing the adenosine A2A receptor (CGS21680 stimulation, HTRF)
Assay type: cell-based
Parameters: expressed in transfected cells; host or cells: 293A cells (Invitrogen, Cat# R705-07) infected with A2A-expressing lentivirus (custom packaged by Biosettia), puromycin selected
Conditions: 293A cells stably expressing A2A receptor; 0.1% BSA; 1 uM CGS21680 stimulation; replicate values separated by /; read-out: cAMP (nM) 0.1% BSA, 1 uM CGS

Chain of Adenosine A2A receptor (P29274 whole entry): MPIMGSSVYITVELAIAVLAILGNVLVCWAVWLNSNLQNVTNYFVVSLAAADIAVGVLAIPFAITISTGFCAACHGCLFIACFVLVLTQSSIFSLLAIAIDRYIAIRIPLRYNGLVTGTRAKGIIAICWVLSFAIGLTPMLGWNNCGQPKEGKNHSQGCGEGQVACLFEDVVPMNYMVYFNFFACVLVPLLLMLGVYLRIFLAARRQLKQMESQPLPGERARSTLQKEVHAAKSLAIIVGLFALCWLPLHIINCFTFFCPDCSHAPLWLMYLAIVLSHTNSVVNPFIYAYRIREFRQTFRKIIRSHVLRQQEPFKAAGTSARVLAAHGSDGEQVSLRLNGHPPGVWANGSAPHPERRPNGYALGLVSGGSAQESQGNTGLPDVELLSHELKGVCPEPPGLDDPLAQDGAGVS

Row | Compound | IC50
1 | Cc1cc(-c2c(OCc3cccc(CNS(C)(=O)=O)n3)nc(N)nc2-c2ccc(F)cc2)cc(C(F)F)n1 [Example 409, N-((6-(((2-amino-5-(2-(difluoromethyl)-6-methylpyridin-4-yl)-6-(4-fluorophenyl)pyrimidin-4-yl)oxy)methyl)pyridin-2-yl)methyl) methanesulfonamide] | 977 nM and 822 nM
2 | Cc1cc(-c2c(OCc3nc(C(C)(C)O)cn3C)nc(N)nc2-c2ccc(F)cc2)cc(C(F)F)n1 [Example 401, 2-(2-(((2-amino-5-(2-(difluoromethyl)-6-methylpyridin-4-yl)-6-(4-fluorophenyl)pyrimidin-4-yl)oxy)methyl)-1-methyl-1H-imidazol-4-yl)propan-2-ol] | 318 nM and 246 nM and 259 nM
3 | Cc1cc(-c2c(OCc3ccc(=O)n(C(C)(C)C(=O)O)n3)nc(N)nc2-c2ccc(F)cc2)cc(C(F)F)n1 [Example 428, 2-(3-(((2-amino-5-(2-(difluoromethyl)-6-methylpyridin-4-yl)-6-(4-fluorophenyl)pyrimidin-4-yl)oxy)methyl)-6-oxopyridazin-1(6H)-yl)-2-methylpropanoic acid] | > 30000 nM

Same assay, conditions: 293A-A2AR cells, 0.1% BSA, 1 uM CGS; read-out: cAMP (nM) 0.1% BSA, 1 uM CGS

Row | Compound | IC50
4 | Cc1cc(-c2c(-c3ccc(F)cc3)nc(N)nc2-c2cn(Cc3cccc(C(C)(C)O)n3)nn2)cc(C(F)F)n1 [Example 298, 2-(6-((4-(2-amino-5-(2-(difluoromethyl)-6-methylpyridin-4-yl)-6-(4-fluorophenyl)pyrimidin-4-yl)-1H-1,2,3-triazol-1-yl)methyl)pyridin-2-yl)propan-2-ol] | > 10000 nM
5 | Cc1cc(-c2c(OCc3nc4c(C(C)(C)C(=O)O)cccc4n3C)nc(N)nc2-c2ccc(F)cc2)cc(C(F)F)n1 [Example 359, 2-(2-(((2-amino-5-(2-(difluoromethyl)-6-methylpyridin-4-yl)-6-(4-fluorophenyl)pyrimidin-4-yl)oxy)methyl)-1-methyl-1H-benzo[d]imidazol-4-yl)-2-methylpropanoic acid] | 9470 nM and 8890 nM
6 | Cc1cc(-c2c(OCCc3ccncc3)nc(N)nc2-c2ccc(F)cc2)cc(C(F)F)n1 [Example 348, 5-(2-(difluoromethyl)-6-methylpyridin-4-yl)-4-(4-fluorophenyl)-6-(2-(pyridin-4-yl)ethoxy)pyrimidin-2-amine] | 2620 nM
7 | Cc1cc(-c2c(OCc3nccn3CC(=O)O)nc(N)nc2-c2ccc(F)cc2)cc(C(F)F)n1 [Example 249, 2-(2-(((2-amino-5-(2-(difluoromethyl)-6-methylpyridin-4-yl)-6-(4-fluorophenyl)pyrimidin-4-yl)oxy)methyl)-1H-imidazol-1-yl)acetic acid] | 7240 nM
8 | Cc1cc(-c2c(OCc3cccc(N4CCC[C@@H]4C(=O)O)n3)nc(N)nc2-c2ccc(F)cc2)cc(C(F)F)n1 [Example 294, (6-(((2-amino-5-(2-(difluoromethyl)-6-methylpyridin-4-yl)-6-(4-fluorophenyl)pyrimidin-4-yl)oxy)methyl)pyridin-2-yl)-D-proline] | 19700 nM
9 | Cc1cc(-c2c(OCCCCO)nc(N)nc2-c2ccc(F)cc2)cc(C(F)F)n1 [Example 245, 4-((2-amino-5-(2-(difluoromethyl)-6-methylpyridin-4-yl)-6-(4-fluorophenyl)pyrimidin-4-yl)oxy)butan-1-ol] | 265 nM
10 | Cc1cc(-c2c(OCc3cc(C(C)(C)C#N)ccn3)nc(N)nc2-c2cccc(C#N)c2C)cc(C(F)F)n1 [Example 261, 3-(2-amino-6-((4-(2-cyanopropan-2-yl)pyridin-2-yl)methoxy)-5-(2-(difluoromethyl)-6-methylpyridin-4-yl)pyrimidin-4-yl)-2-methylbenzonitrile] | 2190 nM
11 | Cc1cc(-c2c(OCc3cccc(C4(C#N)CCOCC4)n3)nc(N)nc2-c2ccc(F)cc2)cc(C(F)F)n1 [Example 275, 4-(6-(((2-amino-5-(2-(difluoromethyl)-6-methylpyridin-4-yl)-6-(4-fluorophenyl)pyrimidin-4-yl)oxy)methyl)pyridin-2-yl)tetrahydro-2H-pyran-4-carbonitrile] | 321 nM
12 | CCC(C)(C#N)c1cccc(COc2nc(N)nc(-c3ccc(F)cc3)c2-c2cc(C)nc(C(F)F)c2)n1 (stereo not shown) [Example 360, 2-(6-(((2-amino-5-(2-(difluoromethyl)-6-methylpyridin-4-yl)-6-(4-fluorophenyl)pyrimidin-4-yl)oxy)methyl)pyridin-2-yl)-2-methylbutanenitrile] | 50 nM and 51 nM and 115 nM
13 | CCc1nnn(CC)c1COc1nc(N)nc(-c2cccc(C#N)c2C)c1-c1cc(C)nc(C(F)F)c1 [Example 255, 3-(2-amino-6-((1,4-diethyl-1H-1,2,3-triazol-5-yl)methoxy)-5-(2-(difluoromethyl)-6-methylpyridin-4-yl)pyrimidin-4-yl)-2-methylbenzonitrile] | > 25000 nM
14 | CCn1ccc(COc2nc(N)nc(-c3cccc(C#N)c3C)c2-c2cc(C)nc(C(F)F)c2)n1 [Example 244, 3-(2-amino-5-(2-(difluoromethyl)-6-methylpyridin-4-yl)-6-((1-ethyl-1H-pyrazol-3-yl)methoxy)pyrimidin-4-yl)-2-methylbenzonitrile] | 756 nM
15 | COCC(O)c1cccc(COc2nc(N)nc(-c3ccc(F)cc3)c2-c2cc(C)nc(C(F)F)c2)n1 (stereo not shown) [Example 281, 1-(6-(((2-amino-5-(2-(difluoromethyl)-6-methylpyridin-4-yl)-6-(4-fluorophenyl)pyrimidin-4-yl)oxy)methyl)pyridin-2-yl)-2-methoxyethan-1-ol] | 609 nM
16 | Cc1cc(-c2c(OCCOC(C)(C)C(=O)O)nc(N)nc2-c2ccc(F)cc2)cc(C(F)F)n1 [Example 226] | > 2500 nM
17 | Cc1cc(-c2c(OCc3ccn(CC(C)(C)O)n3)nc(N)nc2-c2ccc(F)cc2)cc(C(F)F)n1 [Example 258, 1-(3-(((2-amino-5-(2-(difluoromethyl)-6-methylpyridin-4-yl)-6-(4-fluorophenyl)pyrimidin-4-yl)oxy)methyl)-1H-pyrazol-1-yl)-2-methylpropan-2-ol] | 2390 nM
18 | CCc1nnn(C[C@@H](O)CO)c1COc1nc(N)nc(-c2ccc(F)cc2)c1-c1cc(C)nc(C(F)F)c1 [Example 290] | 1310 nM
19 | Cc1cc(-c2c(OCc3cc4c(s3)CCCC4)nc(N)nc2-c2ccc(F)cc2)cc(C(F)F)n1 [Example 346, 5-(2-(difluoromethyl)-6-methylpyridin-4-yl)-4-(4-fluorophenyl)-6-((4,5,6,7-tetrahydrobenzo[b]thiophen-2-yl)methoxy)pyrimidin-2-amine] | 3990 nM
20 | Cc1cc(-c2c(OCc3nccn3CC(C)(C)O)nc(N)nc2-c2cccc(C#N)c2C)cc(C(F)F)n1 [Example 236, 3-(2-amino-5-(2-(difluoromethyl)-6-methylpyridin-4-yl)-6-((1-(2-hydroxy-2-methylpropyl)-1H-imidazol-2-yl)methoxy)pyrimidin-4-yl)-2-methylbenzonitrile] | > 25000 nM
21 | CCc1c(COc2nc(N)nc(-c3ccc(F)cc3)c2-c2cc(C)nc(C(F)F)c2)nnn1CC(C)(C)C(=O)O [Example 302, 3-(4-(((2-amino-5-(2-(difluoromethyl)-6-methylpyridin-4-yl)-6-(4-fluorophenyl)pyrimidin-4-yl)oxy)methyl)-5-ethyl-1H-1,2,3-triazol-1-yl)-2,2-dimethylpropanoic acid] | > 10000 nM
22 | Cc1cc(-c2c(OCc3cnccn3)nc(N)nc2-c2ccc(F)cc2)cc(C(F)F)n1 [Example 273, 5-(2-(difluoromethyl)-6-methylpyridin-4-yl)-4-(4-fluorophenyl)-6-(pyrazin-2-ylmethoxy)pyrimidin-2-amine] | 1660 nM
